Data published in PMC3189207, “DomPep—A General Method for Predicting Modular Domain-Mediated Protein-Protein Interactions” (PLoS ONE, 2011).
Residues, ends and D or L forms follow the SMILES beside them.

Columns and labels:
Scrib PDZ-1 domain = biological target: T1, Scrib PDZ-1 domain (Homo sapiens, UniProt Q14160); assay: In-solution fluorescence polarization binding of peptides to Scrib PDZ1; conditions: Kd value of 100 µM applied as binding cutoff, NB without definition, read-out: Kd (µM) PDZ1
T1 construct: ROC curves of DomPep prediction for the three Scrib PDZ-1/2/3 domains

Scrib PDZ-2 domain = biological target: T2, Scrib PDZ-2 domain (Homo sapiens, UniProt Q14160); assay: In-solution fluorescence polarization binding of peptides to Scrib PDZ2; conditions: Kd value of 100 µM applied as binding cutoff, NB without definition, read-out: Kd (µM) PDZ2
T2 construct: ROC curves of DomPep prediction for the three Scrib PDZ-1/2/3 domains
T2 sequence (Q14160 862-950 limits assumed): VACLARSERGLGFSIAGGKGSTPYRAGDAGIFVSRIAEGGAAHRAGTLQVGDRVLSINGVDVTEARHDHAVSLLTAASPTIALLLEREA

Scrib PDZ-3 domain = biological target: T3, Scrib PDZ-3 domain (Homo sapiens, UniProt Q14160); assay: In-solution fluorescence polarization binding of peptides to Scrib PDZ3; conditions: Kd value of 100 µM applied as binding cutoff, NB without definition
T3 construct: ROC curves of DomPep prediction for the three Scrib PDZ-1/2/3 domains
T3 sequence (Q14160 1004-1093 limits assumed): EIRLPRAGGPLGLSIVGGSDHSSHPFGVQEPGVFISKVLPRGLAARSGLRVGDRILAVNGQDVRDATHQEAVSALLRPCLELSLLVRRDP
Text: Because DomPep compared favorably to MDSM in identifying ligands for a PDZ domain included in the training set and to SPSSM in identifying binding peptides for an untrained PDZ domain, we next tested it whether it could reliably PPIs mediated by a PDZ domain on the genome scale. To this end, we employed three DomPep models to predict interactions between the Scrib PDZ domains and human proteins from the Swiss-Prot protein database. The three prediction models, which were generated for the mouse Scrib PDZ-1, PDZ-2 and PDZ-3 domains, were trained with 6, 5 and 30 positive peptide, respectively (Table S1). Searching the protein database with these models yielded a list of potential PDZ ligands. […] This experiment identified 14, 14, and 38 positives for the PDZ-1, -2, and -3 domains, respectively (Table 1). […] Importantly, we identified four peptides that were not included in the training set as physiological binders to the Scrib PDZ domains. The corresponding proteins, namely APC, LPP, VANGL2 and ZO2, were previously reported to interact with Scrib in vivo via its PDZ domains, [36], [37], [38], [39].
Figure 4 Application of DomPep to the prediction of PDZ-binding ligands. ROC curves of DomPep prediction for the three Scrib PDZ-1/2/3 domains using 56 peptides selected from the human protein database as the test set. The respective affinities of the three domains for the 56 peptides were measured by fluorescence polarization (Table 1).

T1 sequence (Q14160 728-815 limits assumed): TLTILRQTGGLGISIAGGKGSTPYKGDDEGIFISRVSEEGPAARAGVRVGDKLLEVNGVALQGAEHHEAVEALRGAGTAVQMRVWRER

Row | Structure (SMILES) | Kd (Scrib PDZ-1 domain) | Kd (Scrib PDZ-2 domain) | Kd (Scrib PDZ-3 domain)
1 | CC(C)C[C@H](NC(=O)[C@H](CCC(=O)O)NC(=O)[C@H](CCC(=O)O)NC(=O)[C@H](CCCNC(=N)N)NC(=O)[C@@H](NC(=O)[C@H](C)NC(=O)[C@H](CO)NC(=O)[C@@H](NC(=O)[C@H](CCCCN)NC(=O)[C@@H](N)CCC(=O)O)C(C)C)[C@@H](C)O)C(=O)O (H-EKVSATREEL-OH) | > 100 µM | > 100 µM | 88.1 µM
2 | CC(C)C[C@H](NC(=O)[C@@H](N)C(C)C)C(=O)N[C@@H](CCC(N)=O)C(=O)N[C@@H](CCCNC(=N)N)C(=O)N[C@@H](Cc1c[nH]cn1)C(=O)N[C@H](C(=O)N[C@H](C(=O)NCC(=O)N[C@@H](CCCCN)C(=O)N[C@@H](C)C(=O)O)[C@@H](C)O)[C@@H](C)O [ACBD6] (H-VLQRHTTGKA-OH; N-terminus and C-terminus assumed) | > 100 µM | > 100 µM | > 100 µM
3 | CC(C)C[C@H](NC(=O)[C@H](CC(C)C)NC(=O)[C@@H](NC(=O)CNC(=O)[C@H](Cc1ccc(O)cc1)NC(=O)[C@H](CC(C)C)NC(=O)[C@H](CCC(N)=O)NC(=O)[C@H](C)NC(=O)[C@@H](N)CCCCN)[C@@H](C)O)C(=O)N[C@@H](CC(N)=O)C(=O)O [BEGAIN] (H-KAQLYGTLLN-OH; N-terminus and C-terminus assumed) | > 100 µM | > 100 µM | > 100 µM
4 | CC(C)C[C@H](NC(=O)[C@H](CCC(=O)O)NC(=O)[C@H](CCCNC(=N)N)NC(=O)[C@H](Cc1c[nH]c2ccccc12)NC(=O)[C@@H]1CCCN1C(=O)[C@@H]1CCCN1C(=O)[C@H](CC(=O)O)NC(=O)CNC(=O)[C@H](CCCNC(=N)N)NC(=O)[C@@H]1CCCN1)C(=O)O [C19orf57] (H-PRGDPPWREL-OH; N-terminus and C-terminus assumed) | > 100 µM | > 100 µM | > 100 µM
5 | CSCC[C@H](NC(=O)[C@H](CC(C)C)NC(=O)[C@@H](NC(=O)[C@H](CS)NC(=O)[C@H](CCCCN)NC(=O)CNC(=O)[C@H](CCCCN)NC(=O)[C@@H](NC(=O)[C@H](CCCNC(=N)N)NC(=O)[C@@H](N)CC(=O)O)C(C)C)[C@@H](C)O)C(=O)O [DIRAS1] (H-DRVKGKCTLM-OH; N-terminus and C-terminus assumed) | > 100 µM | > 100 µM | > 100 µM
6 | CC[C@H](C)[C@H](NC(=O)[C@@H]1CCCN1C(=O)[C@@H](NC(=O)CNC(=O)[C@@H](NC(=O)[C@@H](NC(=O)[C@H](CC(N)=O)NC(=O)[C@@H](NC(=O)[C@H](CCC(N)=O)NC(=O)[C@@H](N)CC(=O)O)C(C)C)[C@@H](C)O)C(C)C)[C@@H](C)CC)C(=O)O [EPHA2] (H-DQVNTVGIPI-OH; N-terminus and C-terminus assumed) | > 100 µM | > 100 µM | > 100 µM
7 | CC(C)[C@H](NC(=O)[C@@H]1CCCN1C(=O)[C@@H](NC(=O)[C@@H]1CCCN1C(=O)CNC(=O)[C@H](CC(N)=O)NC(=O)[C@H](CCCCN)NC(=O)[C@H](CO)NC(=O)[C@H](CCC(N)=O)NC(=O)[C@@H](N)[C@@H](C)O)C(C)C)C(=O)O [EPHA3] (H-TQSKNGPVPV-OH) | 129 µM | > 100 µM | > 100 µM
8 | CC[C@H](C)[C@H](NC(=O)CNC(=O)[C@@H](NC(=O)CNC(=O)[C@H](Cc1c[nH]cn1)NC(=O)[C@H](CC(C)C)NC(=O)[C@H](Cc1c[nH]cn1)NC(=O)[C@@H](N)CC(C)C)[C@@H](C)O)C(=O)N[C@@H](CCC(N)=O)C(=O)N[C@H](C(=O)O)C(C)C [EPHA7] (H-LHLHGTGIQV-OH; N-terminus and C-terminus assumed) | > 100 µM | > 100 µM | > 100 µM
9 | CC[C@H](C)[C@H](NC(=O)[C@@H]1CCCN1C(=O)[C@@H]1CCCN1C(=O)[C@@H](NC(=O)[C@H](CO)NC(=O)[C@H](Cc1ccc(O)cc1)NC(=O)[C@H](CC(C)C)NC(=O)[C@@H](NC(=O)[C@@H](NC(=O)[C@@H](N)CO)C(C)C)C(C)C)[C@@H](C)O)C(=O)O [FLT1] (H-SVVLYSTPPI-OH; N-terminus and C-terminus assumed) | > 100 µM | > 100 µM | > 100 µM
10 | CC(C)C[C@H](NC(=O)[C@H](C)NC(=O)[C@@H](NC(=O)[C@H](CO)NC(=O)[C@@H](N)CO)[C@@H](C)O)C(=O)N[C@@H](Cc1c[nH]cn1)C(=O)N[C@@H](CCC(N)=O)C(=O)N[C@@H](Cc1c[nH]cn1)C(=O)N[C@@H](Cc1c[nH]cn1)C(=O)N[C@@H](Cc1ccccc1)C(=O)O [LIMD1] (H-SSTALHQHHF-OH; N-terminus and C-terminus assumed) | > 100 µM | > 100 µM | > 100 µM
11 | CC(C)[C@H](NC(=O)[C@H](CCCNC(=N)N)NC(=O)[C@@H](N)CC(=O)O)C(=O)N[C@@H](C)C(=O)N[C@@H](CCC(=O)O)C(=O)N[C@@H](CCC(N)=O)C(=O)N[C@@H](CC(=O)O)C(=O)N[C@H](C(=O)N[C@@H](CCC(N)=O)C(=O)N[C@@H](C)C(=O)O)[C@@H](C)O [MPG] (H-DRVAEQDTQA-OH) | > 100 µM | > 100 µM | 186 µM
12 | CC(C)C[C@H](NC(=O)[C@H](CC(N)=O)NC(=O)[C@H](CCC(=O)O)NC(=O)CNC(=O)[C@@H]1CCCN1C(=O)[C@H](CCC(N)=O)NC(=O)[C@H](Cc1ccc(O)cc1)NC(=O)[C@H](CCC(N)=O)NC(=O)[C@@H]1CCCN1C(=O)[C@@H](N)CCC(=O)O)C(=O)O [SRC] (H-EPQYQPGENL-OH) | > 100 µM | > 100 µM | –
13 | CC[C@H](C)[C@H](NC(=O)[C@H](CCC(N)=O)NC(=O)[C@@H](NC(=O)[C@@H](NC(=O)[C@H](Cc1c[nH]cn1)NC(=O)[C@H](CCC(N)=O)NC(=O)CNC(=O)[C@@H]1CCCN1C(=O)[C@H](C)NC(=O)[C@@H]1CCCN1)[C@@H](C)O)[C@@H](C)O)C(=O)O [STK16] (H-PAPGQHTTQI-OH) | > 100 µM | > 100 µM | –
14 | CC(C)C[C@H](NC(=O)[C@H](CO)NC(=O)[C@H](CO)NC(=O)[C@H](CCC(=O)O)NC(=O)[C@H](Cc1ccc(O)cc1)NC(=O)[C@H](CO)NC(=O)[C@@H](NC(=O)[C@H](C)NC(=O)[C@@H](NC(=O)[C@@H](N)CCCCN)C(C)C)[C@@H](C)O)C(=O)O [STK29] (H-KVATSYESSL-OH) | > 100 µM | > 100 µM | –
15 | CSCC[C@H](NC(=O)[C@H](Cc1ccccc1)NC(=O)[C@H](C)NC(=O)[C@@H](N)Cc1c[nH]c2ccccc12)C(=O)N[C@@H](CCCNC(=N)N)C(=O)N[C@@H](Cc1ccc(O)cc1)C(=O)N[C@@H](CCCNC(=N)N)C(=O)N[C@@H](CCC(N)=O)C(=O)N[C@@H](CCC(N)=O)C(=O)N[C@@H](CC(C)C)C(=O)O [SYNJ2BP] (H-WAFMRYRQQL-OH) | > 100 µM | > 100 µM | –
16 | CC[C@H](C)[C@H](NC(=O)[C@H](CO)NC(=O)[C@H](CO)NC(=O)[C@H](CCC(=O)O)NC(=O)[C@H](C)NC(=O)[C@H](CO)NC(=O)[C@H](C)NC(=O)[C@@H](NC(=O)[C@H](CC(=O)O)NC(=O)[C@@H](N)C(C)C)[C@@H](C)CC)C(=O)O [TANK] (H-VDIASAESSI-OH) | 102 µM | > 100 µM | –
17 | CC[C@H](C)[C@H](NC(=O)[C@H](CC(=O)O)NC(=O)[C@H](CC(N)=O)NC(=O)[C@H](CC(C)C)NC(=O)[C@H](C)NC(=O)[C@H](CC(N)=O)NC(=O)[C@@H](N)CC(=O)O)C(=O)N[C@H](C(=O)N[C@@H](CO)C(=O)N[C@@H](CC(C)C)C(=O)O)[C@@H](C)O [TPM2] (H-DNALNDITSL-OH) | > 100 µM | > 100 µM | –
18 | CC[C@H](C)[C@H](NC(=O)[C@@H](NC(=O)[C@H](CCC(=O)O)NC(=O)[C@H](CO)NC(=O)[C@@H]1CCCN1C(=O)[C@H](CCC(N)=O)NC(=O)[C@H](C)NC(=O)[C@H](CO)NC(=O)[C@@H](N)CO)[C@@H](C)O)C(=O)N[C@@H](CC(C)C)C(=O)O [ZNF654] (H-SSAQPSETIL-OH) | > 100 µM | 32.1 µM | –
19 | CC(C)C[C@H](NC(=O)[C@H](CCC(=O)O)NC(=O)[C@@H](NC(=O)[C@H](CC(=O)O)NC(=O)[C@H](Cc1ccc(O)cc1)NC(=O)[C@H](CCCNC(=N)N)NC(=O)[C@H](C)NC(=O)[C@H](CO)NC(=O)[C@@H](N)CCC(N)=O)[C@@H](C)O)C(=O)O [ZO2] (H-QSARYDTEL-OH) | 16 µM | > 100 µM | –
20 | CC(C)C[C@H](NC(=O)[C@H](CC(N)=O)NC(=O)[C@@H](NC(=O)[C@H](CCC(=O)O)NC(=O)[C@H](CC(=O)O)NC(=O)[C@H](Cc1c[nH]c2ccccc12)NC(=O)[C@H](C)NC(=O)[C@@H]1CCCN1C(=O)[C@H](CC(=O)O)NC(=O)[C@@H](N)CC(N)=O)[C@@H](C)O)C(=O)O [b-PIX] (H-NDPAWDETNL-OH) | 5.3 µM | 16.8 µM | –
